Measurements reported in ChEMBL document CHEMBL1201862, “PubChem BioAssay data set” (2004).
Active and inactive are the calls of the source.

Columns and labels:
[1] = biological target: T1, Polyadenylate-binding protein 1 (Homo sapiens, UniProt P11940); assay: MLLE binding blockers, Cy5 peptide tracer – biochemical, fluorescence polarization, Cy5-PAM2 peptide, secondary, miRNA deadenylation inhibitor project, dose response (AID 602260); format: functional; details: read-out: IC50_Mean
Genome polyprotein = Genome polyprotein (dengue virus type 2, UniProt P29990); assay: flavivirus cap methylation enzyme inhibition – biochemical, confirmation dose response, primary screen (AID 588689); format: functional
Genome polyprotein, sequence (P29990 2492-3391 limits assumed): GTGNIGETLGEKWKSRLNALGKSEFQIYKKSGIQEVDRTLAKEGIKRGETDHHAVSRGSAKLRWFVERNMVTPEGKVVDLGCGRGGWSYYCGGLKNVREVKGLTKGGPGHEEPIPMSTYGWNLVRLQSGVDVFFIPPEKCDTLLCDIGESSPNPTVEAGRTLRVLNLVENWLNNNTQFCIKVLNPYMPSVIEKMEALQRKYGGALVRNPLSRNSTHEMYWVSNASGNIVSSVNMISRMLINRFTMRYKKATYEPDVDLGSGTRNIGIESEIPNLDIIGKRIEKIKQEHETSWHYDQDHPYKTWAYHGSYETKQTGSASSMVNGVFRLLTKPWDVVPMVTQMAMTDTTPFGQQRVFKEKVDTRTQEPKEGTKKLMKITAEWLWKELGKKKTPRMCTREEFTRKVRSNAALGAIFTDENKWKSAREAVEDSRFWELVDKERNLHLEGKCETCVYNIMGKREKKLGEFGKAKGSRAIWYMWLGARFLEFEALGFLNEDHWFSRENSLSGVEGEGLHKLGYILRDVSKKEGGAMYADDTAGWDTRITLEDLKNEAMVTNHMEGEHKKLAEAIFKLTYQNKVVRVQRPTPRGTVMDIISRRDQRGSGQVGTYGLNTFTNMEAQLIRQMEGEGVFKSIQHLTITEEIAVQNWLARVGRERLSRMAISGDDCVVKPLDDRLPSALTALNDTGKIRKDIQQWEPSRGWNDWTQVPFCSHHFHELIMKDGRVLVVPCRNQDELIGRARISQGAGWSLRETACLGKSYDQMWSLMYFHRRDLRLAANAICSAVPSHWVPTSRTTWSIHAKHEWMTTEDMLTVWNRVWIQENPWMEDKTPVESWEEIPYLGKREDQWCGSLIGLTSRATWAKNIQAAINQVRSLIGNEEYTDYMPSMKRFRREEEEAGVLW

[2] = biological target: T1, Polyadenylate-binding protein 1; assay: MLLE domain peptide-binding blockers, IC50 – biochemical, fluorescence polarization, FITC-PAM2 peptide, dose response (AID 602259); format: functional; details: read-out: IC50_Mean
[3] = blockers of HIV-1 envelope-mediated cell-cell fusion – cherry-pick, dose response (AID 652057); format: functional, cell-based
[4] = HIV-1 AD8 envelope cell-cell fusion blockers – cherry-pick, dose response (AID 652062); format: functional, cell-based;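 note: luciferase signal from cell-cell fusion driven by HIV-1 clade B AD8 Env; potency is for inhibitors of fusion seen as a drop in luminescence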
[5] = intracellular Trypanosoma cruzi inhibitors in host cells – cell-based, plate reader, cherry-pick samples, set 3, dose response (AID 651818); format: functional;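 note: compounds incubated with infected cells for about four days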
[6] = biological target: Heat shock protein HSP 90-alpha (Homo sapiens, UniProt P07900); format: functional, organism-based
[7] = reduction of Shn3 3'UTR-driven luciferase in osteoblasts – cell-based, Clone20 osteoblasts, firefly luciferase, cherry-picked, dose response (AID 624132); format: functional;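 note: firefly luciferase luminescence from reporter carrying the Shn3 3'UTR in osteoblasts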
Nonstructural protein 1 = Nonstructural protein 1 (Influenza A virus, UniProt Q194T2); format: functional, Influenza A virus (A/California/07/2009(H1N1))
Nonstructural protein 1, sequence (Q194T2 whole entry): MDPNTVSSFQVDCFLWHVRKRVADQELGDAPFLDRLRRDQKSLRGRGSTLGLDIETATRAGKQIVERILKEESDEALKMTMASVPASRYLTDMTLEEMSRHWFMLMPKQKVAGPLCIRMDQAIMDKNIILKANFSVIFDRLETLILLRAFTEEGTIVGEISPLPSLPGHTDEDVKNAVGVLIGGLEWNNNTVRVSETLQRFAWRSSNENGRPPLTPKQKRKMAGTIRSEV

[8] = non-specific 3'UTR reporter inhibition in Clone20-Shn3RL – cell-based, Renilla luciferase, cherry-picked, counter-screen for Shn3 inhibitor project, dose response (AID 624133); format: functional
cells [9] = format: functional, cell-based
[10] = alpha-synuclein stem-loop luciferase translation blockers – H4 neuroglioma cells, luminescence, confirmation (AID 1988); format: functional, cell-based
[11] = NIH-3T3 fibroblast cytotoxicity, dose response, cytotoxicity control, cell-based, fluorescence, Alamar Blue, secondary assay (AID 2327); format: functional;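 note: NIH-3T3 mouse fibroblasts cultured with fluconazole at 8 µg/mL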
cells [12] = format: functional, cell-based; remark: listed apart in the source
[13] = fluconazole-exposed Candida albicans growth modulators – fluorescence, retest, confirmation (AID 2467); format: functional, cell-based
[14] = luciferase reporter signal suppression in cells – H4 neuroglioma cells, luminescence, dose response (AID 1990); format: functional, cell-based
[15] = loss of viability in HepG2 cells – cell-based, CellTiter-Glo, cherry-picked, cytotoxicity control for Shn3 inhibitor project, dose response (AID 624134); format: functional
INS1 = assay: INS-1E survival protection against cytokine death – cell-based, luminescence, retest, dose response (AID 449756); format: functional; details: Rattus norvegicus;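 note: cell death triggered by IL-1 beta plus TNF-alpha plus IFN-gamma mixture; protective hits raise ATP signal compared with cytokine alone wells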
[16] = Luminescence Cell-Based Dose Response HTS to Identify Inhibitors of 5'UTR Stem-Loop Driven Prion Protein mRNA Translation in H4 Neuroglioblastoma Cells. [Related pubchem assays: 1827 (Project Summary), 1813 (Primary HTS)]; format: functional
[17] = biological target: T2, Short transient receptor potential channel 4 (Mus musculus, UniProt Q9QUQ5); assay: block of DAMGO-driven TRPC4 calcium entry – cell-based, HEK293 TRPC4/mu-opioid, Fluo-4 calcium, dose response (AID 434942); format: functional;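 note: potency of inhibitors blocking the TRPC4 calcium response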
T2 sequence (Q9QUQ5 whole entry): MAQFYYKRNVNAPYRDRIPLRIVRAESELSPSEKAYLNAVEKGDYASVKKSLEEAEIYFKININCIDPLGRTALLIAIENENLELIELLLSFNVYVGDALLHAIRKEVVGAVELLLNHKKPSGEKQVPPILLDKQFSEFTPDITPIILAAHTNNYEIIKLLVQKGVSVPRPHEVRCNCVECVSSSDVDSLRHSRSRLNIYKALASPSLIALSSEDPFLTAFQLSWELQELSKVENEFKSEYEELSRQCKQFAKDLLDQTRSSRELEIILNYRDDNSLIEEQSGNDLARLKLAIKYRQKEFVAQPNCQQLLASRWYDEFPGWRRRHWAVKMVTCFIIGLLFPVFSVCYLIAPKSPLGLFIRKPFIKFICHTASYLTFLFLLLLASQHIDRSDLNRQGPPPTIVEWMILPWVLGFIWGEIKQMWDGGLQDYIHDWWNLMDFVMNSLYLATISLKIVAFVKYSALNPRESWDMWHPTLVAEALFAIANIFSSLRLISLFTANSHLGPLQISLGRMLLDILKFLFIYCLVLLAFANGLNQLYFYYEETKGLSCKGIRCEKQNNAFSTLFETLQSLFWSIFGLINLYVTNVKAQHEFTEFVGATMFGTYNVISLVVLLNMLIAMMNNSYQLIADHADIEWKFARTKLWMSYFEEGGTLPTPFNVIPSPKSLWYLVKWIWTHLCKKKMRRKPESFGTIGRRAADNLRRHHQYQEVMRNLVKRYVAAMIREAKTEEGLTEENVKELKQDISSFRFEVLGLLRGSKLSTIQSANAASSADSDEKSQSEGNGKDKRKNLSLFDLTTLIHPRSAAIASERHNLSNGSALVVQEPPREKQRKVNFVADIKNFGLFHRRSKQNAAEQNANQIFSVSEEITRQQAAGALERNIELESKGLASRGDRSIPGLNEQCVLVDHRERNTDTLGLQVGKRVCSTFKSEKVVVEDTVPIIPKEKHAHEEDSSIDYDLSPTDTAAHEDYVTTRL

[18] = biological target: T3, Microphthalmia-associated transcription factor (Homo sapiens, UniProt O75030); assay: reducers of TRPM1 reporter luminescence, concentration series – cell-based, SK-MEL-5, cherry-picked, set 3, MITF inhibitor project, dose response (AID 493073); format: functional;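 note: SK-MEL-5 melanoma cells with luciferase driven by the MITF target TRPM1 promoter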
T3 sequence (O75030 whole entry): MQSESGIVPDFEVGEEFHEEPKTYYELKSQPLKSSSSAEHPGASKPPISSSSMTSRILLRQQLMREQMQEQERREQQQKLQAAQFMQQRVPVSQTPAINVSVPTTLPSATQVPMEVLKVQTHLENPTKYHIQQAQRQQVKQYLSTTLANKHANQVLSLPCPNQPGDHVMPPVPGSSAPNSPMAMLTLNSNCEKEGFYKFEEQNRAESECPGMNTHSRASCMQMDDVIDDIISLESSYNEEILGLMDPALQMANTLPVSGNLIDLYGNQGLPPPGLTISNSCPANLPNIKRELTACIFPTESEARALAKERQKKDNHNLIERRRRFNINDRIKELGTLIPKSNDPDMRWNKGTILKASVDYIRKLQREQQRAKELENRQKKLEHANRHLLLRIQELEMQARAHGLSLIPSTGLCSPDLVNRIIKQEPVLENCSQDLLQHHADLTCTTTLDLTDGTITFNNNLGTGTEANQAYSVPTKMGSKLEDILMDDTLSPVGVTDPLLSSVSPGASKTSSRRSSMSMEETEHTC

Protein RecA = biological target: T4, Protein RecA (Mycobacterium tuberculosis, UniProt P9WHJ3); assay: Fluorescence Cell-Free Homogeneous Dose Retest to Identify Inhibitors of RecA-Intein Splicing Activity. [Related pubchem assays (depositor defined):AID2097, AID2223, AID489010, AID492950]; format: functional
T4 sequence (P9WHJ3 whole entry): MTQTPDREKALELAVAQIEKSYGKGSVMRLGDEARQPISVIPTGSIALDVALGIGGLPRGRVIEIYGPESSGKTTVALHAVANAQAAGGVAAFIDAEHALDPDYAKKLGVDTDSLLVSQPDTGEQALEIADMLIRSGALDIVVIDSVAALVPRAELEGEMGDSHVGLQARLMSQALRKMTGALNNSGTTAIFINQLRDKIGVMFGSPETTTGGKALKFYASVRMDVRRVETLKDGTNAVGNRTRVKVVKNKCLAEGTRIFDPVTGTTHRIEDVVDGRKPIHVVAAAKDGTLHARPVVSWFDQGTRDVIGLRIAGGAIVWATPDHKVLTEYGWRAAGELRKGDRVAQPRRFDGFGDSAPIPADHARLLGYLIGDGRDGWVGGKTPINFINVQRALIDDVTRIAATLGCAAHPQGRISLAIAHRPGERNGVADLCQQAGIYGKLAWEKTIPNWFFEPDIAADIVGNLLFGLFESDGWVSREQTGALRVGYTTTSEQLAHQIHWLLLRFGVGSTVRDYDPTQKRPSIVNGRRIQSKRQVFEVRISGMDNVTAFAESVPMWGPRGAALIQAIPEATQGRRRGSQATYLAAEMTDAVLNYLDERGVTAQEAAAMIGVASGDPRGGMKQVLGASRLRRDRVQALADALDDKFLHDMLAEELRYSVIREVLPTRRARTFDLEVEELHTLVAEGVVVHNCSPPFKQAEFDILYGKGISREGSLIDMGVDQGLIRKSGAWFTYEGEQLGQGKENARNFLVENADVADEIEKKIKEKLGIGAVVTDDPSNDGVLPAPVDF

[19] = biological target: T5, Replicative DNA helicase DnaB (Mycobacterium tuberculosis, UniProt P9WMR3); assay: DnaB intein splicing inhibitors, dose response, biochemical, cell-free fluorescence (AID 449749); format: functional
T5 sequence (P9WMR3 whole entry): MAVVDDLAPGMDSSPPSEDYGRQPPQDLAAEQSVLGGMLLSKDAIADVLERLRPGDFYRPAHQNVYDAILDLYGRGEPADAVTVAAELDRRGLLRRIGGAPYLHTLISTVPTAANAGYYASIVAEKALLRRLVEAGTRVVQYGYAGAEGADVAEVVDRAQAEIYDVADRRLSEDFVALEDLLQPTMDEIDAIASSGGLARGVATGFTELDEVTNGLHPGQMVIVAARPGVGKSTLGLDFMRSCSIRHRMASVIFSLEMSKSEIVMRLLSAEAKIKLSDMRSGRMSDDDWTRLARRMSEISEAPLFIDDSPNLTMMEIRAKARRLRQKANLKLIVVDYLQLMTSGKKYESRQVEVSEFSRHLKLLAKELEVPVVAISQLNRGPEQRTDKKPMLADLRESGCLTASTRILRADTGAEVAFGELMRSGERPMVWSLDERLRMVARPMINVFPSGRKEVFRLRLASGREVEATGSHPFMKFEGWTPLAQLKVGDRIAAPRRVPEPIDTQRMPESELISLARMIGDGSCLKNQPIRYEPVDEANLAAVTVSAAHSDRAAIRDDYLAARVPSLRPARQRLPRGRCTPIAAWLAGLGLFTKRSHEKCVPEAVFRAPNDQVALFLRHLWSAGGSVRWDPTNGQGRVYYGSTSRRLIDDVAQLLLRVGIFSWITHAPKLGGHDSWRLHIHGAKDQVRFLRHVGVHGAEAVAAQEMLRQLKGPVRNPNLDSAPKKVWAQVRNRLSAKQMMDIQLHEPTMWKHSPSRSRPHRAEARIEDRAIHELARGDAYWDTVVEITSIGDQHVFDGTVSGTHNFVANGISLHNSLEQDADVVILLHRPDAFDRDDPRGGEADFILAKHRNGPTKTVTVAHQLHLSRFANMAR

T1 sequence (P11940 whole entry): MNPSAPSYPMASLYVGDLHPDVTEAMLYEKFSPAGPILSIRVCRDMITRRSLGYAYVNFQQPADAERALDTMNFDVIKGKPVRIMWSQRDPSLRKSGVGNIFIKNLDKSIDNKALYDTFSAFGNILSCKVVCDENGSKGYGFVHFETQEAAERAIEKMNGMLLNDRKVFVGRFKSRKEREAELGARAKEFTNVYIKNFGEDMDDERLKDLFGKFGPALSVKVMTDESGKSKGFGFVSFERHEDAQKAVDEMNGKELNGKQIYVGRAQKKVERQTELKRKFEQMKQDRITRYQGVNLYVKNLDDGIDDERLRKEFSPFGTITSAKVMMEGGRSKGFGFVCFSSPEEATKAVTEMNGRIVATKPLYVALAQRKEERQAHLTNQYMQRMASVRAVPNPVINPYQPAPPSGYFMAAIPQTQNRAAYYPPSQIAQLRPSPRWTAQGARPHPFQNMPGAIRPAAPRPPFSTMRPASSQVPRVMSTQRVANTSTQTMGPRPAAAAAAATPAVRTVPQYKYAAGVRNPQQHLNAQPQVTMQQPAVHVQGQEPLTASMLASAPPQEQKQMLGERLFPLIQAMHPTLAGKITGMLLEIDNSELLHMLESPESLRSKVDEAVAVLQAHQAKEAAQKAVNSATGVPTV

N#Cc1c(N)sc(=S)c2c1CCCC2
IC50 [1]: > 66 µM (inactive)
IC50 (Genome polyprotein): 90.8 µM (active)
IC50 [2]: 57.4 µM (inactive)

C[C@H](CO)N1C[C@H](C)[C@H](CN(C)C(=O)C2CC2)OCc2ccccc2-c2c(n(C)c3ccccc23)C1=O
AC50 [3]: 0.426 µM (active)
AC50 [4]: 0.836 µM (active)

C[C@H]1CN([C@@H](C)CO)C(=O)Cc2cc(NC(=O)Nc3ccccc3)ccc2O[C@H]1CN(C)Cc1ccc(C(=O)Nc2ccccc2N)cc1
AC50 [5]: 2.93 µM (active)

C[C@@H]1CN([C@H](C)CO)C(=O)c2cccc(NC(=O)Nc3ccc(C(F)(F)F)cc3)c2O[C@@H]1CN(C)Cc1ccc2c(c1)OCO2
AC50 [5]: 2.54 µM (active)

C[C@H](CO)N1C[C@H](C)[C@H](CN(C)C(=O)Nc2ccc(C(F)(F)F)cc2)Oc2ccc(NC(=O)Nc3ccc(C(F)(F)F)cc3)cc2C1=O
AC50 [5]: 4.23 µM (active)

COc1cccc(/C=C2/C(=O)NN(c3ccc(F)cc3)C2=O)c1
IC50 (Genome polyprotein): 38.1 µM (active)

O=C1[C@@H]2C(c3cccnc3)=NO[C@@H]2C(=O)N1c1ccc(Br)cc1
AC50 [6]: 5.67 µM (active)

Oc1c(C(Nc2cccc(C(F)(F)F)c2)c2ccncc2)ccc2cccnc12 (centres undefined)
AC50 [7]: 5.8 µM (active)
IC50 (Nonstructural protein 1): 8.76 µM (active)
AC50 [8]: 6.9 µM (active)
EC50 (cells [9]): > 350 µM (not active)
EC50 [10]: 9.42 µM (active)
EC50 [11]: 18.3 µM (active)
EC50 (cells [12]): 9.32 µM (active)
EC50 [13]: 3.42 µM (active)
AC50 [6]: 6.48 µM (active)
EC50 [14]: 11.9 µM (active)
AC50 [15]: 7.21 µM (active)
AC50 (INS1): 3.82 µM (active)
EC50 [16]: 15.3 µM (active)

CC1CCc2c(sc(/N=C/N(C)C)c2C#N)C1 (centres undefined)
EC50 [17]: 2.99 µM (active)

C[C@@H]1CN([C@@H](C)CO)C(=O)c2cc(NS(=O)(=O)c3ccc(Cl)cc3)ccc2O[C@H]1CN(C)Cc1ccc(Cl)c(Cl)c1
AC50 [5]: 3.37 µM (active)

O=C1c2cc(Cl)ccc2-c2c(O)cc(Cl)cc21
AC50 [6]: 2.08 µM (active)

CC(/C=C1\SC(=S)N(C(C(=O)O)C(C)C)C1=O)=C\c1ccccc1 (centres undefined)
EC50 [17]: 5.96 µM (active)
IC50 (Genome polyprotein): 34.3 µM (active)

C[C@H]1CN([C@@H](C)CO)C(=O)c2cc(NC(=O)Nc3cccc4ccccc34)ccc2O[C@@H]1CN(C)Cc1ccc(Cl)c(Cl)c1
AC50 [5]: 3.43 µM (active)

CCCCNC(=O)Nc1ccc(C2SCCS2)cc1
AC50 [18]: 35.3 µM (active)

CC1=NN(c2ccccc2)C(=O)/C1=C\c1ccc(Oc2ccc([N+](=O)[O-])cc2[N+](=O)[O-])cc1
EC50 (Protein RecA): 5.33 µM (active)
AC50 [19]: 3.66 µM (active)
IC50 (Genome polyprotein): 19.3 µM (active)

C[C@H](CO)N1C[C@H](C)[C@@H](CN(C)Cc2ccc(Oc3ccccc3)cc2)Oc2c(NC(=O)Nc3ccccc3)cccc2C1=O
AC50 [5]: 2.17 µM (active)
